The structures appear in SMILES notation. “Also recorded” adds a separate entry of the source. Read-outs that look alike come from different tables or passages of the source.

The subject of test [1] is H1975 cells. As to the kind of experiment: Inhibition of tumor cell line growth (CellTiter-Glo), H1975. It counts as cell-based, human.
The test system of test [2] is H460 cells. As to the kind of experiment: Inhibition of tumor cell line growth (CellTiter-Glo), H460. Conditions: H460, single inhibitor 0.01-10 μM, 5% FBS, 48 hours. It is filed as cell-based, human.
Test [3] has as its system H1993 cells. As to the kind of experiment: Inhibition of tumor cell line growth (CellTiter-Glo), H1993. It is filed as cell-based, human. Conditions: H1993, single inhibitor 0.01-10 μM, 5% FBS, 48 hours. A general note: In ATP-based viability assays light output follows the ATP content of the culture.
Test [4] concerns eight human lung tumor cell lines. As to the kind of experiment: Inhibition of tumor cell growth, panel of lung tumor cell lines. It counts as cell-based.
Test [5] deals with A549 cells. As to the kind of experiment: Inhibition of tumor cell line growth (CellTiter-Glo), A549. It counts as cell-based, human. Conditions: A549, single inhibitor 0.01-10 μM, 5% FBS, 48 hours.
Test [6] has as its system H1650 cells. As to the kind of experiment: Inhibition of tumor cell line growth (CellTiter-Glo), H1650. It is filed as cell-based, human. Conditions: H1650, single inhibitor 0.01-10 μM, 5% FBS, 48 hours.
The subject of test [7] is H358 cells. As to the kind of experiment: Inhibition of tumor cell line growth (CellTiter-Glo), H358. It is filed as cell-based, human. As to conditions: H358, single inhibitor 0.01-10 μM, 5% FBS, 48 hours.
Test [8] concerns IGF-1R pathway in A549 cells. As to the kind of experiment: Inhibition of activated signaling pathways by kinase inhibitors (CEER assay), A549. It counts as cell-based, human. As to conditions: A549, serum-starved overnight, 4-hour treatment, CEER assay (FIG. 2).
Excerpt: (§1) The principal of the CEER™ assay is based on the capture of the target protein by a target-specific antibody printed in two dilutions on the surface of a microarray slide. […] Formation of this complex is initiated by the binding of the first detecting antibody, which is coupled to glucose oxidase (GO), to an epitope on the captured target protein that is different from the epitope recognized by the capture antibody, followed by the binding of a second detecting antibody, which is coupled to horseradish peroxidase (HRP), to a phosphorylated tyrosine (p-Tyr) residue on the target protein. […]
(§2) The capture antibodies against mouse IgG, human epidermal growth factor receptor 1 (Her1), human epidermal growth factor receptor 2 (Her2), human epidermal growth factor receptor 3 (Her3), human hepatocyte growth factor receptor (cMET), human insulin-like growth factor-1 receptor (IGF1R), human stem cell growth factor receptor (cKit), human phosphatidylinositol-3-kinase (PI3K), human Src homology 2 domain-containing protein (SHC) and human cytokeratin (CK), were printed in this order in 10 rows from top to bottom in each slide. […] The relative fluorescence value of the respective reagent blank was subtracted from each sample to give a relative fluorescence unit (RFU) according the number of cells' extract.
The subject of test [9] is H460 cells. As to the kind of experiment: Anchorage-independent growth inhibition (soft agarose colonies), H460. As to conditions: H460, 0.1 μM and 1 μM, two weeks, agar. It is filed as cell-based, human.
Description: (§3) The plates were kept at 4° C. for 2 hr to solidify the cell-containing layer. The plates were then incubated at 37° C. in a CO2 incubator with 2 mL of medium containing various concentrations of the kinase inhibitor. The medium with the inhibitor was changed every 3 days.
In test [10] the test system is IGF-1R pathway in H460 cells. As to the kind of experiment: Inhibition of activated signaling pathways by kinase inhibitors (CEER assay), H460. It is filed as cell-based, human. Conditions: H460, serum-starved overnight, 4-hour treatment, CEER assay (FIG. 2).
Excerpt: as §1, §2
Test [11] has as its system HCC827 cells. As to the kind of experiment: Inhibition of tumor cell line growth (CellTiter-Glo), HCC827. It is filed as cell-based, human.
The test system of test [12] is A549 cells. As to the kind of experiment: Anchorage-independent growth inhibition (soft agarose colonies), A549. It is filed as cell-based, human. As to conditions: A549, 0.1 μM and 1 μM, two weeks, agar.
Description: as §3
Test [13] has as its system H358 cells. As to the kind of experiment: Anchorage-independent growth inhibition (soft agarose colonies), H358. It is filed as cell-based, human. Conditions: H358, 0.1 μM and 1 μM, two weeks, agar.
Description: as §3
The test system of test [14] is H1734 cells. As to the kind of experiment: Inhibition of tumor cell line growth (CellTiter-Glo), H1734. As to conditions: H1734, single inhibitor 0.01-10 μM, 5% FBS, 48 hours.
Test [15] concerns Her1 and/or Her2 pathway in H1734 cells. Conditions: H1734, serum-starved overnight, 4-hour treatment, CEER assay (FIG. 2).
Excerpt: as §1, §2
Test [16] relates to H1734 cells. As to the kind of experiment: Anchorage-independent growth inhibition (soft agarose colonies), H1734. It is filed as cell-based, human. Conditions: H1734, 0.1 μM and 1 μM, two weeks, agar.
Test [17] deals with H1993 cells. As to the kind of experiment: Anchorage-independent growth inhibition (soft agarose colonies), H1993. It is filed as cell-based, human. Conditions: H1993, 0.1 μM and 1 μM, two weeks, agar.
Description: as §3
Test [18] has as its system c-Met pathway in H1993 cells. As to the kind of experiment: Inhibition of activated signaling pathways by kinase inhibitors (CEER assay), H1993 c-Met. It is filed as cell-based, human. Conditions: H1993, serum-starved overnight, 4-hour treatment, CEER assay (FIG. 2).
Excerpt: as §1, §2
[19] abbreviates: H1975, single inhibitor 0.01-10 μM, 5% FBS, 48 hours.

Regarding `Cn1c(=O)n(-c2ccc(C(C)(C)C#N)cc2)c2c3cc(-c4cnc5ccccc5c4)ccc3ncc21` [BEZ-235], the “inhibition of cell proliferation” value in test [1] (setting [19]) is reported as “weakly inhibited”; in [2], “inhibited; also recorded: sensitive”; in test [3], “only weakly”; in test [5] it was “inhibited; also recorded: sensitive”. In addition, the “inhibition of tumor cell growth across the cell lines tested” value in [4] is “effectively inhibited tumor cell growth in most of the cell lines tested, except the H1993 and H1650 cells”.

On to `CN(C)C/C=C/C(=O)Nc1cc2c(Nc3ccc(F)c(Cl)c3)ncnc2cc1O[C@H]1CCOC1` [BIBW-2992], for which the “inhibition of cell proliferation” value in [1] is given as “potently inhibit the growth; also recorded: moderately inhibited”; in test [3] it was “only weakly”; in test [6], “inhibited”.

Consider `Cc1cc(N2CCOCC2)cc2[nH]c(-c3c(NC[C@@H](O)c4cccc(Cl)c4)cc[nH]c3=O)nc12` [BMS-536924], for which the “inhibition of cell proliferation” value in [1] (setting [19]) was “able to inhibit the growth”; in test [2], “weakly inhibited”; in test [7], “inhibit its proliferation more effectively”; in test [11] (HCC827, single inhibitor 0.01-10 μM, 5% FBS, 48 hours), “inhibition of proliferation”; in [5] it was “inhibited”. Also, the “blocking of activated IGF-1R pathway” value in [8] and in test [10] was “able to block” each time. Also, the “reduction of cell colony size, anchorage-independent growth” value in test [9], in [12] and in test [13] was “reduce cell colony size formation dose-dependently” in each case.

For the molecule `C#Cc1cccc(Nc2ncnc3cc(OCCOC)c(OCCOC)cc23)c1` [Erlotinib], the “inhibition of cell proliferation” value in test [1] (setting [19]) and in test [14] was “inhibited” in each case.

On to `CS(=O)(=O)CCNCc1ccc(-c2ccc3ncnc(Nc4ccc(OCc5cccc(F)c5)c(Cl)c4)c3c2)o1` [Lapatinib], for which the “inhibition of cell proliferation” value in test [1] (setting [19]) is on record as “resistant”; in [7], “weakly blocked”; in test [11], “able to inhibit the proliferation”. Further, the “blocking of Her1 and/or Her2 pathway activation” value in test [15] is “activation blocked”.

As for `O=C(NOC[C@H](O)CO)c1ccc(F)c(F)c1Nc1ccc(I)cc1F` [PD-325901], the “inhibition of cell proliferation” value is “weakly inhibited” in test [1] (setting [19]); “not” in test [2]; “not” in test [7]; “able to block the proliferation” in [3]; “effective in blocking the growth” in test [14]; “not and weakly” in [5]. In [16], the “proliferation of cell colony size, anchorage-independent growth” value was “potently blocked”.

Regarding `C[C@@H](Oc1cc(-c2cnn(C3CCNCC3)c2)cnc1N)c1c(Cl)ccc(F)c1Cl` [PF-2341066], the “inhibition of cell proliferation” value is reported as “not inhibited” in test [7] and “block its proliferation very effectively” in [3]. Moreover, the “large colony formation, anchorage-independent growth” value in test [17] was “inhibited”. For the same molecule, the “blocking of c-Met pathway activation” value in test [18] is on record as “blocked”.

The record behind these values is patent US20140057798A1, “PREDICTION OF DRUG SENSITIVITY OF LUNG TUMORS BASED ON MOLECULAR GENETIC SIGNATURES” (NESTEC S.A., priority 2011, published 2014).
